Experimental data as given in ChEMBL document CHEMBL5154926, “Discovery of a Novel Series of Imipridone Compounds as Homo sapiens Caseinolytic Protease P Agonists with Potent Antitumor Activities In Vitro and In Vivo” (J Med Chem, 2022).
≈ marks a conversion by molar mass, not a printed value.

Columns and labels:
[1] = molecular target: ATP-dependent Clp protease proteolytic subunit, mitochondrial (Homo sapiens, UniProt Q16740); assay: Agonist activity at human CLpP (57 to 277 amino acids) expressed in Escherichia coli using fluorogenic peptide AC-WLA-AMC as substrate incubated for 10 mins by fluorescence based assay
Chain of ATP-dependent Clp protease proteolytic subunit, mitochondrial (Q16740 whole entry, the tested form may be a part): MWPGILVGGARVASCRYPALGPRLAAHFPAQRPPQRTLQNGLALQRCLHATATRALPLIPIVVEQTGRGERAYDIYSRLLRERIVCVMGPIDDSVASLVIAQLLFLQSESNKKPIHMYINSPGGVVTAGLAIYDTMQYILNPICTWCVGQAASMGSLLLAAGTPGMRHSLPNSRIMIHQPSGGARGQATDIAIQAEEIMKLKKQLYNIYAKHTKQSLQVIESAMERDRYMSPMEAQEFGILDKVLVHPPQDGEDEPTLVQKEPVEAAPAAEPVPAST

HCT-116 = assay: cells; conditions: Homo sapiens, HCT-116, 48 h
Description: Antiproliferative activity against human HCT-116 cells incubated for 48 hrs by CCK-8 assay

[2] = 1-octanol/water partition coefficient, log P of the compound agitated for 4 hrs measured by shake flask assay based HPLC analysis; format: physicochemical
[3] = Aqueous solubility of the compound agitated for 24 hrs by HPLC analysis; format: physicochemical; conditions: buffer
[4] = Stability in rat liver microsomes assessed as half life at 1.5 uM measured upto 90 mins in presence of NADPH by LC/MS analysis; format: ADME, Microsome; conditions: 1.5 h
[5] = Stability in human liver microsomes assessed as intrinsic clearance at 1.5 uM measured upto 90 mins in presence of NADPH by LC/MS analysis; format: ADME, Microsome; conditions: read-out: CLH
HT-29 = assay: cells; conditions: Homo sapiens, HT-29, 48 h
Description: Antiproliferative activity against human HT-29 cells incubated for 48 hrs by CCK-8 assay

SW-620 = assay: cells; conditions: Homo sapiens, SW-620, 48 h
Description: Antiproliferative activity against human SW-620 cells incubated for 48 hrs by CCK-8 assay

DLD-1 = assay: cells; conditions: Homo sapiens, DLD-1, 48 h
Description: Antiproliferative activity against human DLD-1 cells incubated for 48 hrs by CCK-8 assay

HCT-15 = assay: cells; conditions: Homo sapiens, HCT-15, 48 h
Description: Antiproliferative activity against human HCT-15 cells incubated for 48 hrs by CCK-8 assay

SW480 = assay: cells; conditions: Homo sapiens, SW480, 48 h
Description: Antiproliferative activity against human SW480 cells incubated for 48 hrs by CCK-8 assay

[6] = Stability in human liver microsomes assessed as half life at 1.5 uM measured upto 90 mins in presence of NADPH by LC/MS analysis; format: ADME, Microsome; conditions: microsomes, 1.5 h, 1.5 µM

EC50 [1] | IC50 (HCT-116) | SMILES | further results
> 10000 nM | > 10000 nM | Cc1ccccc1CN1CCn2c1nc(=O)c1c2CCN(CC(C)C)C1 | –
2410 nM | > 10000 nM | Cc1ccccc1CN1CCn2c1nc(=O)c1c2CCN(CC2CCCCC2)C1 | –
510 nM | 1500 nM | Cc1cccc(CN2CCc3c(c(=O)nc4n3CCN4Cc3ccccc3C)C2)c1 | –
120 nM | 520 nM | O=c1nc2n(c3c1CN(Cc1ccccc1)CC3)CCN2Cc1ccccc1 | –
100 nM | 1200 nM | COc1cccc(CN2CCn3c2nc(=O)c2c3CCN(Cc3ccccc3)C2)c1 | –
500 nM | 1160 nM | COc1ccc(CN2CCn3c2nc(=O)c2c3CCN(Cc3ccccc3)C2)cc1 | –
> 10000 nM | > 10000 nM | Cc1ccccc1CN1CCn2c1nc(=O)c1c2CCN(c2nncs2)C1 | –
300 nM | 100 nM | O=c1nc2n(c3c1CN(Cc1ccccc1)CC3)CCN2Cc1ccc(F)c(F)c1 | IC50 (HT-29): 50 nM; IC50 (SW-620): 150 nM; IC50 (DLD-1): 150 nM; IC50 (HCT-15): 200 nM; IC50 (SW480): 120 nM
420 nM | > 10000 nM | O=c1nc2n(c3c1CN(Cc1ccccc1)CC3)CCN2CCc1ccccc1 | –
360 nM | 310 nM | O=c1nc2n(c3c1CN(Cc1ccccc1)CC3)CCN2Cc1ccc2ccccc2c1 | –
> 10000 nM | > 10000 nM | CCN1CCc2c(c(=O)nc3n2CCN3Cc2ccccc2C)C1 | –
130 nM | 2460 nM | O=c1nc2n(c3c1CN(Cc1ccccc1)CC3)CCN2CC1CCCCC1 | –
260 nM | 220 nM | O=c1nc2n(c3c1CN(Cc1ccccc1)CC3)CCN2Cc1cccc(F)c1 | –
> 10000 nM | > 10000 nM | Cc1ccccc1CN1CCn2c1nc(=O)c1c2CCN(CCCCc2ccccc2)C1 | –
160 nM | 100 nM | O=c1nc2n(c3c1CN(Cc1ccccc1)CC3)CCN2Cc1ccc(F)cc1F | IC50 (HT-29): 80 nM; IC50 (SW-620): 90 nM; IC50 (DLD-1): 90 nM; IC50 (HCT-15): 120 nM; IC50 (SW480): 120 nM
1640 nM | > 10000 nM | Cc1ccccc1CN1CCn2c1nc(=O)c1c2CCN(Cc2cccnc2)C1 | –

Continued, molecule first:

SMILES | EC50 [1] | IC50 (HCT-116) | further results
Cc1ccccc1CN1CCn2c1nc(=O)c1c2CCN(CCc2ccccc2)C1 | 1090 nM | 6010 nM | –
Cc1ccccc1CN1CCn2c1nc(=O)c1c2CCN(CC2CC2)C1 | > 10000 nM | > 10000 nM | –
Cc1ccc(CN2CCc3c(c(=O)nc4n3CCN4Cc3ccccc3C)C2)cc1 | 640 nM | 5310 nM | –
Cc1ccccc1CN1CCn2c1nc(=O)c1c2CCN(Cc2cccc(C#N)c2)C1 | 580 nM | 500 nM | –
Cc1ccccc1CN1CCn2c1nc(=O)c1c2CCN(Cc2ccncc2)C1 | 1610 nM | > 10000 nM | –
O=c1nc2n(c3c1CN(Cc1ccccc1)CC3)CCN2Cc1ccco1 | 1760 nM | > 10000 nM | –
Cc1ccccc1CN1CCn2c1nc(=O)c1c2CCN(C(=O)Cc2ccccc2)C1 | > 10000 nM | > 10000 nM | –
O=c1nc2n(c3c1CN(Cc1ccccc1)CC3)CCN2Cc1ccncc1 | 1130 nM | > 10000 nM | –
Cc1ccccc1CN1CCCn2c1nc(=O)c1c2CCN(Cc2ccccc2)C1 | 3520 nM | > 10000 nM | –
O=c1nc2n(c3c1CN(Cc1ccccc1)CC3)CCN2Cc1ccc(C(F)(F)F)cc1 | 290 nM | 320 nM | –
O=c1nc2n(c3c1CN(Cc1ccccc1)CC3)CCN2Cc1ccccc1Cl | 190 nM | 310 nM | –
Cc1cccc(CN2CCn3c2nc(=O)c2c3CCN(Cc3ccccc3)C2)c1 | 390 nM | 300 nM | –
O=c1nc2n(c3c1CN(Cc1ccccc1)CC3)CCN2Cc1ccc(Br)c(F)c1 | 210 nM | 110 nM | –
Cc1ccccc1CN1CCn2c1nc(=O)c1c2CCN(Cc2ccc(F)cc2)C1 | 640 nM | 10000 nM | –
Cc1ccccc1CN1C(=O)C2=C(CCN(Cc3ccccc3)C2)N2CCN=C12 [DORDAVIPRONE] | – | – | logP at 4 h [2]: 2.93; solubility at 24 h [3]: 200 µM (≈ 77.4 µg/mL); t1/2 [4]: 10.5 min; CLint scaled at 1.5 µM [5]: 187 mL/min/kg
O=c1nc2n(c3c1CN(Cc1ccccc1)CC3)CCN2Cc1ccc(Cl)cc1 | 300 nM | 80 nM | IC50 (HT-29): 70 nM; IC50 (SW-620): 170 nM; IC50 (DLD-1): 100 nM; IC50 (HCT-15): 250 nM; IC50 (SW480): 100 nM
O=c1nc2n(c3c1CN(Cc1ccccc1)CC3)CCN2Cc1cccc(Br)c1 | 360 nM | 610 nM | –
O=c1nc2n(c3c1CN(Cc1ccccc1)CC3)CCN2Cc1ccc(Br)cc1 | 400 nM | 550 nM | –

SMILES | EC50 [1] | IC50 (HCT-116) | further results
O=c1nc2n(c3c1CN(Cc1ccccc1)CC3)CCN2Cc1ccc(F)cc1 | 130 nM | 80 nM | IC50 (HT-29): 400 nM; IC50 (SW-620): 190 nM; IC50 (DLD-1): 90 nM; IC50 (HCT-15): 210 nM; IC50 (SW480): 170 nM
O=c1nc2n(c3c1CN(Cc1ccccc1)CC3)CCN2c1ccccc1 | 1040 nM | > 10000 nM | –
Cc1ccccc1CN1CCn2c1nc(=O)c1c2C(F)(F)CN(Cc2ccccc2)C1 | 500 nM | 5100 nM | –
CCN1CCn2c1nc(=O)c1c2CCN(Cc2ccccc2)C1 | > 10000 nM | > 10000 nM | –
O=c1nc2n(c3c1CN(Cc1ccccc1)CC3)CCN2Cc1ccccc1F | 440 nM | 290 nM | –
O=c1nc2n(c3c1CN(Cc1ccccc1)CC3)CCN2Cc1cccc(Cl)c1 | 280 nM | 190 nM | –
Cc1ccccc1CN1CCn2c1nc(=O)c1c2CCN(C(=O)c2ccccc2)C1 | > 10000 nM | > 10000 nM | –
Cc1ccccc1CN1CCn2c1nc(=O)c1c2CCN(Cc2ccc(F)cc2F)C1 | 980 nM | > 10000 nM | –
Cc1ccccc1CN1CCn2c1nc(=O)c1c2CCN(Cc2ccc(F)c(F)c2)C1 | 320 nM | 5000 nM | –
O=c1nc2n(c3c1CN(Cc1ccccc1)CC3)CCN2CC1CC1 | 1220 nM | > 10000 nM | –
O=c1nc2n(c3c1CN(Cc1ccccc1)CC3)CCN2Cc1cccnc1 | 1040 nM | > 10000 nM | –
CC(C)CCN1CCn2c1nc(=O)c1c2CCN(Cc2ccccc2)C1 | 450 nM | 4200 nM | –
O=C(c1ccc(F)cc1)C1CCN(CCn2c(=O)[nH]c3ccccc3c2=O)CC1 [KETANSERIN] | – | – | t1/2 [6]: 34 min; t1/2 [4]: 18.5 min; CLint scaled at 1.5 µM [5]: 51.1 mL/min/kg
Cc1ccccc1CN1CCn2c1nc(=O)c1c2CCN(Cc2ccccc2C#N)C1 | 660 nM | > 10000 nM | –
COc1ccccc1CN1CCn2c1nc(=O)c1c2CCN(Cc2ccccc2)C1 | 110 nM | 1340 nM | –
CN1CCn2c1nc(=O)c1c2CCN(Cc2ccccc2)C1 | > 10000 nM | > 10000 nM | –
Cc1ccc(CN2CCn3c2nc(=O)c2c3CCN(Cc3ccccc3)C2)cc1 | 320 nM | 210 nM | –
